{"source": "patent US8097624B2", "about": "“Cycloalkyl derivatives of 3-hydroxy-4-pyridinones” (Apotex Inc., priority 2006, dated 2012)", "key": {"[1]": {"assay": "Metal complexation constants, Fe system (spectrophotometric titration; pM by Hyss)", "format": "binding", "conditions": "for Log β3: Fe(III) overall complexation constant; for pFe^3+: total iron 10^−6 M, ligand 10^−5 M, pH 7.4, calculated from experimental pKa and complexation constants", "experimental": "Compounds of this invention are designed to improve properties to known deferiprone analogues. […]. The definition of pFe^3+ used herein is the concentration of ferric ion in solution when the total amount of iron equals 10^−6 M and the concentration of ligand is 10^−5 M and pH is 7.4. It is calculated using experimental determined pKa and metal complexation constants using Hyperquad software (Version 2.1, Peter Gans, University of Leeds). The lowering of the pKa value of the C3 phenolic OH to less than 8.8 ensures that a higher pFe^3+ value when combined with a favorable complexation constant β3. The concept of complexation is detailed below.\nThe stepwise and overall complexation constants of a bidentate ligand such as 3-hydroxy-4-pyridinone follow: Fe(III)+Ligand→Fe[Ligand]1K1 Fe[Ligand]1+Ligand→Fe[Ligand]2K2 Fe[Ligand]2+Ligand→Fe[Ligand]3K3 Complexation constant β3=K1.K2.K3\nStepwise formation constants for M^n+-ligand systems were determined by spectrophotometric titration when metal complexes have a strong absorbance in the visible region due to ligand to metal charge transfer. In a typical experiment, the sample solution was prepared according to the following method: Apo6619 (10.7 mg) was weighed into an 80-ml beaker, followed by the addition of 0.1 M NaCl (50 ml). The mixture was sonicated for 10 minutes to give a clear colorless solution. Iron stock solution (atomic absorption standard, Aldrich, 496 μl, 8.93E-06 moles) was pipetted into the solution followed by the addition of 1.000 N NaOH (137 μl). The molar ratio between the total iron and the total Apo6619 was 1:5.4. The mixture was allowed to equilibrate at room temperature overnight. Nitrogen was allowed to bubble through the solution. 1.000 N Hydrochloric acid (3 ml) was then added to the solution to give pH 1.5. The solution was allowed to equilibrate at 22° C. for 3 hours.\nA sipper system was used for the circulation of the sample solution between the beaker and the flow cell.\nThe sample solution was titrated against standard NaOH solutions at 22° C. to reach pH 6.89. After each addition of base the solution was allowed to equilibrate until a constant pH reading was reached. The pH and the UV-Vis spectrum were recorded for each measurement. For each measurement enough base was added so that there was a slight increase in the absorbance of the spectrum. The solution was titrated until there was no obvious increase in the spectra after several subsequent additions of base. Altogether 64 measurements were taken to finish the experiment.\n[…]; pM^n+ is defined as −log [M(H2O)m]^n+ at physiological conditions, i.e.: pH 7.4, a ligand concentration of 10 μM, and a metal concentration of 1 μM.\nTo calculate pM^n+ for a MLn system, βn and pKa values are needed (βn are the formation constants for M^n++n L^− ? MLn; pKa are the equilibrium constants for L^−+n H^+ ? LHn^(n−1)+). The pM^n+ can be calculated by using Hyss software (Hyperquad Stimulation and Speciation software: HYSS2© 2000 Protonic Sofware)."}, "Iron Overloaded Rat": {"test_system": "Iron Overloaded Rat", "assay": "Urinary and fecal iron excretion in the iron overloaded rat (first study, 450 μmoles/kg)", "format": "in vivo", "conditions": "for urinary excretion of iron compared with deferiprone: 450 μmol/kg; for Fecal excretion (fecal iron, three days after chelator administration): 450 μmoles/kg oral, n=6, mean ± 1SD", "description": "The purpose of this study was to determine the effectiveness of Apo6619 and Apo6617 in promoting iron excretion in the iron overloaded rat model. Iron overloading was achieved by administration of iron dextran. Iron overloading using iron dextran has previously been used to assess chelator efficacy in mice (Kontoghiorghes G. J., Mol. Pharmacol. 1986, 30(6), 670-3; Bartfay et al., Cardiovasc Res. 1999, 43(4), 892-900), gerbils (Hershko et al., J. Lab Clin Med 2002, 139, 50-58), rats (Rakba N. Biochem Pharmacol. 1998, 55(11):1796-1806) and primates (Bergeron et. al., Blood, 1992, 79(7), 1882-1890). The iron loading regime used in this study results in a 20-fold increase in liver iron and a 3.8-fold increase in cardiac iron levels in male rats.\nSix male Sprague-Dawley rats (weighing between 200-250 gms) were received from Charles River Laboratories, Montreal, Quebec, Canada. Rats were iron loaded by administration of iron dextran intraperitoneally at a dose of 100 mg/kg, twice weekly for a period of 4 weeks for a total of 8 injections (iron dextran, Sigma). The total volume of iron dextran injected was 1 mL/kg. Following an eight week period, rats were transferred to metabolic cages (one rat/cage). Once the animals were in the metabolic cages, excreta (both urine and feces) were collected daily for at least 3 day prior to and 4 days following the administration of each chelator. Each of the two chelators (Apo6619 and Apo6617) was administered consecutively. Chelators were administered as a single dose of 450 μmoles/kg by oral gavage at a dose volume of 2-4 mL/kg. The animals were weighed prior to dosing to enable exact dosage administration. Animals were checked daily (eyes, skin and movement) after chelator administration to determine if there were any obvious signs of ill health. Urine and feces were stored at −20° C. until analysis for total iron concentrations.\nRats were housed in a climate and light controlled environment (temperature: 19-25° C., relative humidity 40%, 12 hrs light/dark cycle) throughout the study. During the acclimatization, iron loading and equilibration phases, rats were placed in standard cages (2 rats/cage), fed standard rodent chow and given regular tap water ad libitum. Rats were transferred to metabolic cages (one rat/cage, Nalgene, Rochester N.Y.) after iron loading and equilibration. Three days before placement of the rats in the metabolic cages, rats were fed a low iron diet (3 ppm iron, Dyets Inc., Bethlehem, Pa.) and given Millipore water ad libitum. Rats were continued on the low iron diet for the duration of the study. The purpose of placing animals on a low iron diet was to reduce the background noise produced by dietary iron in the fecal samples.\nA 50 mg/ml dosing solution of the chelator of formula I (570 mg) was first dissolved in a mixture of Millipore water (2 ml) and 6N HCl (0.4 ml) and brought up to the final volume (11.4 ml) with Millipore water (9 ml). Final pH of the solutions was adjusted to pH 4 with diluted sodium hydroxide solution. Solutions were protected from light and prepared freshly prior to each administration.\nUrine and feces samples were shipped to the Trace Elements Laboratory at the London Health Sciences Center, London, Ontario, Canada for analysis of total iron concentration. Briefly, feces samples were prepared by adding water, heating to 98° C., vortexing and subsequently freeze drying. The samples were then mixed, and a representative subsample taken and digested with boiling HNO3 and H2O2. Feces samples were then diluted 1:100 with ultrapure water prior to running using a high resolution sector field ICP-MS (Finnigan Element 1). Urine samples were digested with 0.1% HNO3 and diluted 1/10 prior to running on the ICP-MS. Appropriate calibration curves using iron spiked samples and NIST traceable standards were used. Samples lying above or below the quantification range were re-run. […]"}, "[2]": {"conditions": "single oral dose 450 μmoles/kg, n=6"}}, "data": [{"smiles": "Cc1cc(=O)c(O)c(C(=O)NC2CC2)n1C", "note": "[Apo6617, 3-Hydroxy-1,6-dimethyl-4-oxo-1,4-dihydro-pyridine-2-carboxylic Acid Cyclopropylamide]", "values": [{"measurement": "Log β3", "setting": "[1]", "value": 33.6}, {"measurement": "pFe^3+", "setting": "[1]", "value": 20.8}, {"measurement": "urinary excretion of iron compared with deferiprone", "setting": "Iron Overloaded Rat", "value": "significantly higher than deferiprone"}, {"measurement": "Fecal excretion (fecal iron, three days after chelator administration)", "setting": "Iron Overloaded Rat", "value": "4411 ± 790", "unit": "µg/day/kg"}, {"measurement": "urinary iron excretion one day after chelator administration", "setting": "Iron Overloaded Rat; [2]", "value": "164 ± 55", "unit": "µg/day/kg"}, {"measurement": "urinary iron excretion second day after chelator administration", "setting": "Iron Overloaded Rat; [2]", "value": "17 ± 13", "unit": "µg/day/kg"}, {"measurement": "melting point", "value": "260 to 262", "unit": "°C"}]}, {"smiles": "CNC(=O)c1c(O)c(=O)cc(C)n1C1CC1", "note": "[Apo6619, 1-Cyclopropyl-3-hydroxy-6-methyl-4-oxo-1,4-dihydro-pyridine-2-carboxylic Acid Methylamide]", "values": [{"measurement": "Log β3", "setting": "[1]", "value": 33.4}, {"measurement": "PM Fe(III)", "setting": "[1]; pH 7.4, ligand 10 μM, metal 1 μM", "value": 20.5}, {"measurement": "pFe^3+", "setting": "[1]", "value": 20.7}, {"measurement": "urinary excretion of iron compared with deferiprone", "setting": "Iron Overloaded Rat", "value": "significantly higher than deferiprone"}, {"measurement": "Fecal excretion (fecal iron, three days after chelator administration)", "setting": "Iron Overloaded Rat", "value": "4154 ± 1245", "unit": "µg/day/kg"}, {"measurement": "urinary iron excretion one day after chelator administration", "setting": "Iron Overloaded Rat; [2]", "value": "240 ± 131", "unit": "µg/day/kg"}, {"measurement": "urinary iron excretion second day after chelator administration", "setting": "Iron Overloaded Rat; [2]", "value": "16 ± 5", "unit": "µg/day/kg"}, {"measurement": "urinary iron excretion third day after chelator administration", "setting": "Iron Overloaded Rat; [2]", "value": "5 ± 1", "unit": "µg/day/kg"}, {"measurement": "melting point", "value": "258 to 260 °C (dec.)"}]}, {"smiles": "Cc1c(O)c(=O)ccn1C", "note": "[deferiprone, 1,2-dimethyl-3-hydroxy-4-pyridinone, reference compound]", "values": [{"measurement": "Log β3", "setting": "[1]", "value": 36.3}, {"measurement": "pFe^3+", "setting": "[1]", "value": 19.7}, {"measurement": "Fecal excretion (fecal iron, three days after chelator administration)", "setting": "Iron Overloaded Rat", "value": "2157 ± 169", "unit": "µg/day/kg"}, {"measurement": "urinary iron excretion one day after chelator administration", "setting": "Iron Overloaded Rat; [2]", "value": "80 ± 32", "unit": "µg/day/kg"}, {"measurement": "urinary iron excretion second day after chelator administration", "setting": "Iron Overloaded Rat; [2]", "value": "returned to baseline"}]}]}
